The compounds below were run against T1, integrin α4β7 (RPMI8866 human cells adhering to MAdCAM-1) (Homo sapiens, UniProt P13612+P26010) (assay: Integrin α4β7-MAdCAM cell adhesion assay (RPMI8866 cells)). Settings: RPMI8866 cells adhering to MAdCAM; read-out: RPMI8866 Adhesion α4β7/MAdCAM IC50.
T1 construct: RMP18866 cells, which express integrin α4β7; host or cells: RPMI8866
T1 sequence (P13612 34-1032): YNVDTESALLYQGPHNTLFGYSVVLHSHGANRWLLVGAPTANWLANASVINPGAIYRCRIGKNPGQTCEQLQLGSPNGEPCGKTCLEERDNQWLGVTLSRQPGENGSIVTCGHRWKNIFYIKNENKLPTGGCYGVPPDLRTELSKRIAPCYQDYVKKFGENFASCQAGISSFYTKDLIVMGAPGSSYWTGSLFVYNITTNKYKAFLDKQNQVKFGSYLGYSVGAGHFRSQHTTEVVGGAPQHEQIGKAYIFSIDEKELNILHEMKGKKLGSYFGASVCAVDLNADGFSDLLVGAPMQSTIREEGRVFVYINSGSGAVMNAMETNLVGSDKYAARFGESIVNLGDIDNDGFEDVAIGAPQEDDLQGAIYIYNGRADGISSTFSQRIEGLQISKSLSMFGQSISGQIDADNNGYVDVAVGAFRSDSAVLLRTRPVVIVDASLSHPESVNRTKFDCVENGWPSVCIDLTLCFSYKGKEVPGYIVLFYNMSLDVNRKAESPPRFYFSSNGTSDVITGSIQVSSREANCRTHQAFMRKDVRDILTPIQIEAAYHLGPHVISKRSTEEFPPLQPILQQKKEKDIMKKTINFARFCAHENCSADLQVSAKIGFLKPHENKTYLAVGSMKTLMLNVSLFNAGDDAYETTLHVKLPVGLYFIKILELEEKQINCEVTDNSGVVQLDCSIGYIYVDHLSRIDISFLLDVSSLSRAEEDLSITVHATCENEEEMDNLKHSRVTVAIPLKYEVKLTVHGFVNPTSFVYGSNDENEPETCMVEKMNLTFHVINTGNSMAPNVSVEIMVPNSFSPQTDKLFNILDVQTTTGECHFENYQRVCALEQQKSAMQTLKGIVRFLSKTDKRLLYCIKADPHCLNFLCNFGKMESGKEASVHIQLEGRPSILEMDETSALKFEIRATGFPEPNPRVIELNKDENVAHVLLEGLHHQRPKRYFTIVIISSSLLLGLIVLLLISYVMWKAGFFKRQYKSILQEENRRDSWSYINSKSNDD
T1 sequence (P26010 20-798): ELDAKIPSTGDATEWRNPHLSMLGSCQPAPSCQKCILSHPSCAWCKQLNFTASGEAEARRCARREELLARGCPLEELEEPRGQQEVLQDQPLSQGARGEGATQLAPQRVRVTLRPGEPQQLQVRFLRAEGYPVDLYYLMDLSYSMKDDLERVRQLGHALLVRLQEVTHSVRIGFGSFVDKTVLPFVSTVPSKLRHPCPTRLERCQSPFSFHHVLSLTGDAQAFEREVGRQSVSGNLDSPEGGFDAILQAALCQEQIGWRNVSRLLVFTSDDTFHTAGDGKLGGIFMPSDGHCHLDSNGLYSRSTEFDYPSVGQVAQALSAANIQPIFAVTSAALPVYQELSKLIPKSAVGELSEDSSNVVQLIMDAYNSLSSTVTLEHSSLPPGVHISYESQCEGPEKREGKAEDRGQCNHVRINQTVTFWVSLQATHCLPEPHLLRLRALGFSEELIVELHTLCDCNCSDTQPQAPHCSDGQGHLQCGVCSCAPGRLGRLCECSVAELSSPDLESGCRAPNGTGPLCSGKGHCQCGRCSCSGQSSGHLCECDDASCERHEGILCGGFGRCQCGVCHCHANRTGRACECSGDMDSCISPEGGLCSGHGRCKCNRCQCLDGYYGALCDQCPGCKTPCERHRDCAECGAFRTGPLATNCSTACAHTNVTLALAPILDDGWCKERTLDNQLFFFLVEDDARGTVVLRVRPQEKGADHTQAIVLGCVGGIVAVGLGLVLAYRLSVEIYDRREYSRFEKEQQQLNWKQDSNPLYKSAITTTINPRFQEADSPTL
Format: cell-based
In short: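 Adhesion was read by calcein fluorescence. RPMI8866 cells were labelled at 10 million cells/ml with […] calcein (37° C., 30 min) and washed twice in PBS before reading. Dose-response values were corrected by subtracting cell-free control well fluorescence.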
CC(C)C[C@@H]1NC(=O)c2ccc(-c3ccc(N4CCN(c5ncc([N+](=O)[O-])c(N6CCN(c7ccc(-c8ccc9cc8CNC(=O)[C@@H]8CCCN8[C@H](C(=O)NC(C)(C)C)[C@H](C)NC(=O)[C@H]([C@@H](C)O)NC(=O)[C@H](CC(=O)O)NC(=O)[C@H](CC(C)C)NC9=O)cc7)CC6)n5)CC4)cc3)c(c2)CNC(=O)[C@@H]2CCCN2[C@H](C(=O)NC(C)(C)C)[C@H](C)NC(=O)[C@H]([C@@H](C)O)NC(=O)[C@H](CC(=O)O)NC1=O [Compound 468] gave an IC50 of 0.013 µM.
In the case of CC(C)C[C@@H]1NC(=O)c2ccc(-c3ccc(N4CCN(C(=O)c5cc(-c6ccccc6)c(C(=O)N6CCN(c7ccc(-c8ccc9cc8CNC(=O)[C@@H]8CCCN8[C@H](C(=O)NC(C)(C)C)[C@H](C)NC(=O)[C@H]([C@@H](C)O)NC(=O)[C@H](CC(=O)O)NC(=O)[C@H](CC(C)C)NC9=O)cc7)CC6)cc5-c5ccccc5)CC4)cc3)c(c2)CNC(=O)[C@@H]2CCCN2[C@H](C(=O)NC(C)(C)C)[C@H](C)NC(=O)[C@H]([C@@H](C)O)NC(=O)[C@H](CC(=O)O)NC1=O [Compound 469], the IC50 is reported as 0.005 µM.
CC(C)C[C@@H]1NC(=O)c2ccc(-c3ccc(N4CCN(C(=O)c5ccc(C(=O)N6CCN(c7ccc(-c8ccc9cc8CNC(=O)[C@@H]8CCCN8[C@H](C(=O)NC(C)(C)C)[C@H](C)NC(=O)[C@H]([C@@H](C)O)NC(=O)[C@H](CC(=O)O)NC(=O)[C@H](CC(C)C)NC9=O)cc7)CC6)s5)CC4)cc3)c(c2)CNC(=O)[C@@H]2CCCN2[C@H](C(=O)NC(C)(C)C)[C@H](C)NC(=O)[C@H]([C@@H](C)O)NC(=O)[C@H](CC(=O)O)NC1=O [Compound 470] gave an IC50 of 0.017 µM.
CC(C)C[C@@H]1NC(=O)c2ccc(-c3ccc(N4CCN(C(=O)c5ccc(-c6ccc(C(=O)N7CCN(c8ccc(-c9ccc%10cc9CNC(=O)[C@@H]9CCCN9[C@H](C(=O)NC(C)(C)C)[C@H](C)NC(=O)[C@H]([C@@H](C)O)NC(=O)[C@H](CC(=O)O)NC(=O)[C@H](CC(C)C)NC%10=O)cc8)CC7)cc6)cc5)CC4)cc3)c(c2)CNC(=O)[C@@H]2CCCN2[C@H](C(=O)NC(C)(C)C)[C@H](C)NC(=O)[C@H]([C@@H](C)O)NC(=O)[C@H](CC(=O)O)NC1=O [Compound 474] showed an IC50 of 0.014 µM.
Compound CC(C)C[C@@H]1NC(=O)c2ccc(-c3ccc(N4CCN(C(=O)c5cc(F)ccc5-c5ccc(F)cc5C(=O)N5CCN(c6ccc(-c7ccc8cc7CNC(=O)[C@@H]7CCCN7[C@H](C(=O)NC(C)(C)C)[C@H](C)NC(=O)[C@H]([C@@H](C)O)NC(=O)[C@H](CC(=O)O)NC(=O)[C@H](CC(C)C)NC8=O)cc6)CC5)CC4)cc3)c(c2)CNC(=O)[C@@H]2CCCN2[C@H](C(=O)NC(C)(C)C)[C@H](C)NC(=O)[C@H]([C@@H](C)O)NC(=O)[C@H](CC(=O)O)NC1=O [Compound 475] has an IC50 of 0.018 µM.
Work on CC(C)C[C@@H]1NC(=O)c2ccc(-c3ccc(N4CCN(CC(=O)N5CCN(c6ccc(-c7ccc8cc7CNC(=O)[C@@H]7CCCN7[C@H](C(=O)NC(C)(C)C)[C@H](C)NC(=O)[C@H]([C@@H](C)O)NC(=O)[C@H](CC(=O)O)NC(=O)[C@H](CC(C)C)NC8=O)cc6)CC5)CC4)cc3)c(c2)CNC(=O)[C@@H]2CCCN2[C@H](C(=O)NC(C)(C)C)[C@H](C)NC(=O)[C@H]([C@@H](C)O)NC(=O)[C@H](CC(=O)O)NC1=O [Compound 481] yielded an IC50 of 0.036 µM.
For CC(C)C[C@@H]1NC(=O)c2ccc(-c3ccc(N4CCN(CCC(=O)N5CCN(c6ccc(-c7ccc8cc7CNC(=O)[C@@H]7CCCN7[C@H](C(=O)NC(C)(C)C)[C@H](C)NC(=O)[C@H]([C@@H](C)O)NC(=O)[C@H](CC(=O)O)NC(=O)[C@H](CC(C)C)NC8=O)cc6)CC5)CC4)cc3)c(c2)CNC(=O)[C@@H]2CCCN2[C@H](C(=O)NC(C)(C)C)[C@H](C)NC(=O)[C@H]([C@@H](C)O)NC(=O)[C@H](CC(=O)O)NC1=O [Compound 482], the IC50 was 0.026 µM.
Work on CC(C)C[C@@H]1NC(=O)c2ccc(-c3ccc(N4CCN(C(=O)CCC(=O)N5CCN(c6ccc(-c7ccc8cc7CNC(=O)[C@@H]7CCCN7[C@H](C(=O)NC(C)(C)C)[C@H](C)NC(=O)[C@H]([C@@H](C)O)NC(=O)[C@H](CC(=O)O)NC(=O)[C@H](CC(C)C)NC8=O)cc6)CC5)CC4)cc3)c(c2)CNC(=O)[C@@H]2CCCN2[C@H](C(=O)NC(C)(C)C)[C@H](C)NC(=O)[C@H]([C@@H](C)O)NC(=O)[C@H](CC(=O)O)NC1=O [Compound 484] yielded an IC50 of 0.014 µM.
CC(C)C[C@@H]1NC(=O)c2ccc(-c3ccc(N4CCN(C(=O)C[C@@H](N)C(=O)N5CCN(c6ccc(-c7ccc8cc7CNC(=O)[C@@H]7CCCN7[C@H](C(=O)NC(C)(C)C)[C@H](C)NC(=O)[C@H]([C@@H](C)O)NC(=O)[C@H](CC(=O)O)NC(=O)[C@H](CC(C)C)NC8=O)cc6)CC5)CC4)cc3)c(c2)CNC(=O)[C@@H]2CCCN2[C@H](C(=O)NC(C)(C)C)[C@H](C)NC(=O)[C@H]([C@@H](C)O)NC(=O)[C@H](CC(=O)O)NC1=O [Compound 493] showed an IC50 of 0.045 µM.
CC(C)C[C@@H]1NC(=O)c2ccc(-c3ccc(N4CCN(C(=O)CC[C@H](N)C(=O)N5CCN(c6ccc(-c7ccc8cc7CNC(=O)[C@@H]7CCCN7[C@H](C(=O)NC(C)(C)C)[C@H](C)NC(=O)[C@H]([C@@H](C)O)NC(=O)[C@H](CC(=O)O)NC(=O)[C@H](CC(C)C)NC8=O)cc6)CC5)CC4)cc3)c(c2)CNC(=O)[C@@H]2CCCN2[C@H](C(=O)NC(C)(C)C)[C@H](C)NC(=O)[C@H]([C@@H](C)O)NC(=O)[C@H](CC(=O)O)NC1=O [Compound 494] gave an IC50 of 0.05 µM.
CC(C)C[C@@H]1NC(=O)c2ccc(-c3ccc(N4CCN(C(=O)[C@H](CCCCNC(=O)CCCCCC(=O)NCCCC[C@H](NC(=O)OCc5ccccc5)C(=O)N5CCN(c6ccc(-c7ccc8cc7CNC(=O)[C@@H]7CCCN7[C@H](C(=O)NC(C)(C)C)[C@H](C)NC(=O)[C@H]([C@@H](C)O)NC(=O)[C@H](CC(=O)O)NC(=O)[C@H](CC(C)C)NC8=O)cc6)CC5)NC(=O)OCc5ccccc5)CC4)cc3)c(c2)CNC(=O)[C@@H]2CCCN2[C@H](C(=O)NC(C)(C)C)[C@H](C)NC(=O)[C@H]([C@@H](C)O)NC(=O)[C@H](CC(=O)O)NC1=O [Compound 498] gave an IC50 of 0.036 µM.
Compound CC(C)C[C@@H]1NC(=O)c2ccc(-c3ccc(N4CCN(Cc5cccc(CN6CCN(c7ccc(-c8ccc9cc8CNC(=O)[C@@H]8CCCN8[C@H](C(=O)NC(C)(C)C)[C@H](C)NC(=O)[C@H]([C@@H](C)O)NC(=O)[C@H](CC(=O)O)NC(=O)[C@H](CC(C)C)NC9=O)cc7)CC6)c5)CC4)cc3)c(c2)CNC(=O)[C@@H]2CCCN2[C@H](C(=O)NC(C)(C)C)[C@H](C)NC(=O)[C@H]([C@@H](C)O)NC(=O)[C@H](CC(=O)O)NC1=O [Compound 499] has an IC50 of 0.042 µM.
CC(C)C[C@@H]1NC(=O)c2ccc(-c3ccc(N4CCN(Cc5ccc(CN6CCN(c7ccc(-c8ccc9cc8CNC(=O)[C@@H]8CCCN8[C@H](C(=O)NC(C)(C)C)[C@H](C)NC(=O)[C@H]([C@@H](C)O)NC(=O)[C@H](CC(=O)O)NC(=O)[C@H](CC(C)C)NC9=O)cc7)CC6)cc5)CC4)cc3)c(c2)CNC(=O)[C@@H]2CCCN2[C@H](C(=O)NC(C)(C)C)[C@H](C)NC(=O)[C@H]([C@@H](C)O)NC(=O)[C@H](CC(=O)O)NC1=O [Compound 500] was tested, and the IC50 was 0.032 µM.

Source: patent US11713338B2, “Cyclic peptides multimers targeting α-4-β-7 integrin” (priority 2016, dated 2023)
